Values after ≈ are worked out from the molar mass of the structure shown.
How the values were obtained:
[1] = test system: Staphylococcus aureus; assay: Antibacterial activity against Staphylococcus aureus A1775 was determined; format: functional
[2] = test system: Enterococcus faecium; assay: Antibacterial activity against Enterococcus faecium ATCC 8043 was determined; format: functional
[3] = test system: Pseudomonas aeruginosa; assay: Antibacterial activity against Pseudomonas aeruginosa A-5007 was determined; format: functional
[4] = test system: Streptococcus pyogenes; assay: Antibacterial activity against Streptococcus pyogenes EES61 was determined; format: functional
[5] = test system: Klebsiella pneumoniae; assay: Antibacterial activity against Klebsiella pneumoniae ATCC 8045 was determined; format: functional
[6] = test system: Staphylococcus aureus; assay: Antibacterial activity against Staphylococcus aureus NCTC-10649M was determined; format: functional
[7] = test system: Klebsiella aerogenes; assay: Antibacterial activity against Enterobacter aerogenes ATCC 13048 was determined; format: functional
[8] = test system: Escherichia coli; assay: Antibacterial activity against Escherichia coli JUHL was determined; format: functional; settings: Escherichia coli; read-out: MIC
[9] = test system: Providencia stuartii; assay: Antibacterial activity against Gram-negative Providencia Stuartii CMX640 was determined; format: functional
[10] = test system: Streptococcus equinus; assay: Antibacterial activity against Gram-positive Streptococcus bovis A5169 was determined; format: functional
[11] = test system: Escherichia coli; assay: Effective dose against Escherichia coli JUHL in mice upon subcutaneous administration; format: functional; settings: sc
[12] = test system: Staphylococcus aureus; assay: Effective dose against Staphylococcus aureus NCTC-10649M in mice upon subcutaneous administration; format: functional; settings: sc
[13] = test system: DNA gyrase (bacterial); assay: Compound was tested for bacterial DNA gyrase activity; settings: Bacteria
[14] = Oral bioavailability in rat (dose 5 mg/kg); format: ADME, organism-based; settings: in vivo
[15] = test system: Staphylococcus aureus; assay: Effective dose against Staphylococcus aureus NCTC-10649M in mice upon peroral administration; format: functional; settings: po
[16] = Compound was evaluated for maximal plasma concentration in rat upon 5 mg/kg upon oral administration; format: ADME, organism-based; parameters: dose 5 mg/kg, route oral
[17] = Compound was tested for its effective dose against Escherichia coli JUHL in mice upon peroral administration; format: functional; settings: Mus musculus, po
[18] = Staphylococcus aureus, read-out: MIC
[19] = Enterococcus faecium, ATCC 8043, read-out: MIC
[20] = Pseudomonas aeruginosa, read-out: MIC
[21] = Streptococcus pyogenes, read-out: MIC
[22] = Klebsiella pneumoniae, ATCC 8045, read-out: MIC
[23] = Klebsiella aerogenes, ATCC 13048, read-out: MIC
[24] = Providencia stuartii, read-out: MIC
[25] = Streptococcus equinus, read-out: MIC

Row | SMILES | MIC [1, 18] [µg/mL] | MIC [2, 19] [µg/mL] | MIC [3, 20] [µg/mL] | MIC [4, 21] [µg/mL] | MIC [5, 22] [µg/mL] | MIC [6, 18] [µg/mL] | MIC [7, 23] [µg/mL] | MIC [8] [µg/mL] | MIC [9, 24] [µg/mL] | MIC [10, 25] [µg/mL] | MIC [6] [µg/mL] | ED50 [11] [mg/kg/day] | ED50 [12] [mg/kg/day] | CC50 [13] [µg/mL] | ED50 [15] [mg/kg/day] | further results
1 | Cc1c(N2C[C@H](CF)[C@H](N)C2)c(F)cn2c(=O)c(C(=O)O)cc(C3CC3)c12 | 1.56 (≈ 4.13 µM) | 0.1 (≈ 0.265 µM) | 0.2 (≈ 0.53 µM) | 0.02 (≈ 0.053 µM) | 0.005 (≈ 0.0132 µM) | 0.01 (≈ 0.0265 µM) | 0.02 (≈ 0.053 µM) | 0.005 (≈ 0.0132 µM) | 0.39 (≈ 1.03 µM) |  |  |  |  |  |  | 
2 | Cc1c(N2C[C@@H](CF)[C@H](N)C2)c(F)cn2c(=O)c(C(=O)O)cc(C3CC3)c12 | 1.56 (≈ 4.13 µM) | 0.1 (≈ 0.265 µM) | 0.39 (≈ 1.03 µM) | 0.1 (≈ 0.265 µM) | 0.01 (≈ 0.0265 µM) |  | 0.05 (≈ 0.132 µM) | 0.02 (≈ 0.053 µM) | 0.78 (≈ 2.07 µM) | 0.1 (≈ 0.265 µM) | 0.02 (≈ 0.053 µM) | 0.8 | 1.2 |  |  | 
3 | Cc1c(N2C[C@@H](N)[C@H](F)C2)c(F)cn2c(=O)c(C(=O)O)cc(C3CC3)c12 (stereo in doubt; 3a) [listing 1 of 2 here] |  |  |  |  |  |  |  |  |  |  |  |  |  | 0.7 (≈ 1.93 µM) |  | 
4 | Cc1c(N2C[C@@H](N)[C@H](F)C2)c(F)cn2c(=O)c(C(=O)O)cc(C3CC3)c12 (stereo in doubt; 3a) [listing 2 of 2 here] |  |  |  |  |  |  |  | 0.02 (≈ 0.055 µM) |  |  | 0.02 (≈ 0.055 µM) |  |  |  |  | MIC [1]: 0.78 µg/mL (≈ 2.15 µM); MIC [2]: 0.1 µg/mL (≈ 0.275 µM); MIC [3]: 0.78 µg/mL (≈ 2.15 µM); MIC [4]: 0.2 µg/mL (≈ 0.55 µM); MIC [5]: 0.02 µg/mL (≈ 0.055 µM); MIC [10]: 0.2 µg/mL (≈ 0.55 µM); MIC [7]: 0.05 µg/mL (≈ 0.138 µM); MIC [9]: 1.56 µg/mL (≈ 4.29 µM)
5 | Cc1c(N2CCC(F)C2)c(F)cn2c(=O)c(C(=O)O)cc(C3CC3)c12 (centres undefined) | 1.56 (≈ 4.48 µM) | 0.05 (≈ 0.144 µM) | 1.56 (≈ 4.48 µM) | 0.1 (≈ 0.287 µM) | 0.1 (≈ 0.287 µM) | 0.02 (≈ 0.0574 µM) | 0.39 (≈ 1.12 µM) | 0.1 (≈ 0.287 µM) | 0.78 (≈ 2.24 µM) | 0.1 (≈ 0.287 µM) |  |  | > 12 | 0.6 (≈ 1.72 µM) | > 50 | bioavailability [14]: 13%; Cmax [16]: 350 ng/mL
6 | Cc1c(N2CCC(F)(CN)C2)c(F)cn2c(=O)c(C(=O)O)cc(C3CC3)c12 (centres undefined) | 0.39 (≈ 1.03 µM) | 0.02 (≈ 0.053 µM) | 0.39 (≈ 1.03 µM) | 0.02 (≈ 0.053 µM) | 0.005 (≈ 0.0132 µM) | 0.01 (≈ 0.0265 µM) | 0.05 (≈ 0.132 µM) | 0.02 (≈ 0.053 µM) | 0.78 (≈ 2.07 µM) | 0.02 (≈ 0.053 µM) |  |  |  |  |  | 
7 | Cc1c(N2C[C@@H](N)[C@H](F)C2)c(F)cn2c(=O)c(C(=O)O)cc(C3CC3)c12 (stereo in doubt; 3a-R,R7) | 1.56 (≈ 4.29 µM) | 0.2 (≈ 0.55 µM) | 1.56 (≈ 4.29 µM) | 0.2 (≈ 0.55 µM) | 0.02 (≈ 0.055 µM) |  |  |  | 1.56 (≈ 4.29 µM) | 0.39 (≈ 1.07 µM) | 0.05 (≈ 0.138 µM) | > 5 | 4.8 |  | 7.3 | MIC [7]: 0.2 µg/mL (≈ 0.55 µM); ED50 [17]: > 10 mg/kg/day
8 | Cc1c(N2C[C@H](N)[C@@H](F)C2)c(F)cn2c(=O)c(C(=O)O)cc(C3CC3)c12 | 1.56 (≈ 4.29 µM) | 0.39 (≈ 1.07 µM) | 0.78 (≈ 2.15 µM) | 0.39 (≈ 1.07 µM) | 0.02 (≈ 0.055 µM) | 0.05 (≈ 0.138 µM) | 0.2 (≈ 0.55 µM) |  | 0.78 (≈ 2.15 µM) | 0.39 (≈ 1.07 µM) |  | > 5 | 4.8 |  | 25 | ED50 [17]: > 10 mg/kg/day
9 | Cc1c(N2C[C@@H](CN)[C@H](C(F)(F)F)C2)c(F)cn2c(=O)c(C(=O)O)cc(C3CC3)c12 | 0.78 (≈ 1.82 µM) | 0.02 (≈ 0.0468 µM) | 0.39 (≈ 0.912 µM) | 0.02 (≈ 0.0468 µM) | 0.01 (≈ 0.0234 µM) | 0.01 (≈ 0.0234 µM) | 0.05 (≈ 0.117 µM) | 0.02 (≈ 0.0468 µM) | 1.56 (≈ 3.65 µM) | 0.02 (≈ 0.0468 µM) |  |  | 0.7 | 6.5 (≈ 15.2 µM) | 2.6 | 
10 | Cc1c(N2C[C@@H](N)[C@H](C(F)(F)F)C2)c(F)cn2c(=O)c(C(=O)O)cc(C3CC3)c12 | 1.56 (≈ 3.77 µM) | 0.2 (≈ 0.484 µM) | 0.78 (≈ 1.89 µM) | 0.2 (≈ 0.484 µM) | 0.05 (≈ 0.121 µM) | 0.02 (≈ 0.0484 µM) | 0.2 (≈ 0.484 µM) | 0.05 (≈ 0.121 µM) | 3.1 (≈ 7.5 µM) | 0.39 (≈ 0.943 µM) |  |  | 4.8 | 3.8 (≈ 9.19 µM) | 25.4 | 
